Tested on: MDA-MB-468 spheroids with HUVEC/MSC, viability
Assay: Anticancer human tumor MDA-MB-468 cell line growth inhibition [PI3K];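 further: spheroids exposed to agents for seven days before readout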;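 on viability, T/C: 100% = DMSO vehicle control viability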
Conditions: for IC50: curve of first compound; for viability, T/C: stronger effect = lower value; active means viability on the fitted dose curve at most 10% of control; inactive means the rest
Method in brief: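 Tumor cells grown as multi-cell spheroids with HUVEC endothelial cells and MSC fibroblast-like stroma were treated with targeted agents combined with inavolisib, alpelisib, duvelisib or copanlisib. Doses fell in half-log steps from near clinical Cmax, else from 10 microM. Viability was measured.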

[1] = second compound 0.0316 µM, first compound 0.0316 µM
[2] = second compound 0.0316 µM, first compound 0.1 µM
[3] = second compound 0.0316 µM, first compound 0.316 µM
[4] = second compound 0.0316 µM, first compound 1 µM
[5] = second compound 0.0316 µM, first compound 3.16 µM
[6] = second compound 0.0316 µM, first compound 10 µM
[7] = second compound 0.1 µM, first compound 0.0316 µM
[8] = second compound 0.1 µM, first compound 0.1 µM
[9] = second compound 0.1 µM, first compound 0.316 µM
[10] = second compound 0.1 µM, first compound 1 µM
[11] = second compound 0.1 µM, first compound 3.16 µM
[12] = second compound 0.1 µM, first compound 10 µM
[13] = second compound 0.316 µM, first compound 0.0316 µM
[14] = second compound 0.316 µM, first compound 0.1 µM
[15] = second compound 0.316 µM, first compound 0.316 µM
[16] = second compound 0.316 µM, first compound 1 µM
[17] = second compound 0.316 µM, first compound 3.16 µM
[18] = second compound 0.316 µM, first compound 10 µM
[19] = second compound 1 µM, first compound 0.0316 µM
[20] = second compound 1 µM, first compound 0.1 µM
[21] = second compound 1 µM, first compound 0.316 µM
[22] = second compound 1 µM, first compound 1 µM
[23] = second compound 1 µM, first compound 3.16 µM
[24] = second compound 1 µM, first compound 10 µM
[25] = second compound 3.16 µM, first compound 0.0316 µM
[26] = second compound 3.16 µM, first compound 0.1 µM
[27] = second compound 3.16 µM, first compound 0.316 µM
[28] = second compound 3.16 µM, first compound 1 µM
[29] = second compound 3.16 µM, first compound 3.16 µM
[30] = second compound 3.16 µM, first compound 10 µM
[31] = second compound 10 µM, first compound 0.0316 µM
[32] = second compound 10 µM, first compound 0.1 µM
[33] = second compound 10 µM, first compound 0.316 µM
[34] = second compound 10 µM, first compound 1 µM
[35] = second compound 10 µM, first compound 3.16 µM
[36] = second compound 10 µM, first compound 10 µM

Cn1ncc(Cl)c1-c1cc(C(=O)NC(CN)Cc2cccc(F)c2)sc1Cl (stereo not drawn) + CC(Nc1ncnc2nc[nH]c12)c1cc2cccc(Cl)c2c(=O)n1-c1ccccc1
242 nM: IC50 (second compound 1 µM)
inactive: viability, T/C [1] 83.2% | viability, T/C [2] 73.1% | viability, T/C [3] 45.6% | viability, T/C [4] 32.3% | viability, T/C [5] 26% | viability, T/C [6] 17.7% | viability, T/C [7] 84.6% | viability, T/C [8] 65.5% | viability, T/C [9] 50.3% | viability, T/C [10] 35.9% | viability, T/C [11] 29.7% | viability, T/C [12] 16.1% | viability, T/C [13] 68.7% | viability, T/C [14] 63.4% | viability, T/C [15] 51.1% | viability, T/C [16] 33.9% | viability, T/C [17] 29.1% | viability, T/C [18] 18.6% | viability, T/C [19] 58.4% | viability, T/C [20] 60.1% | viability, T/C [21] 47% | viability, T/C [22] 32.9% | viability, T/C [23] 27.8% | viability, T/C [24] 17.9% | viability, T/C [25] 51.7% | viability, T/C [26] 45.4% | viability, T/C [27] 40.8% | viability, T/C [28] 32.6% | viability, T/C [29] 25.9% | viability, T/C [30] 20.2% | viability, T/C [31] 40.4% | viability, T/C [32] 41.6% | viability, T/C [33] 36.3% | viability, T/C [34] 28% | viability, T/C [35] 23.8% | viability, T/C [36] 15.5%
331 nM: IC50 (second compound 0.316 µM)
338 nM: IC50 (second compound 0.1 µM)
< 31.6 nM: IC50 (second compound 10 µM)
293 nM: IC50 (second compound 0.0316 µM)
44.2 nM: IC50 (second compound 3.16 µM)

CC(C)n1nc(-c2ccc3oc(N)nc3c2)c2c(N)ncnc21 + CC(Nc1ccc2c(c1)OCCn1cc(N3C(=O)OCC3C(F)F)nc1-2)C(N)=O
inactive: viability, T/C (second compound 0.00316 µM, first compound 0.000316 µM) 89.9% | viability, T/C (second compound 0.00316 µM, first compound 0.001 µM) 100% | viability, T/C (second compound 0.00316 µM, first compound 0.00316 µM) 91.8% | viability, T/C (second compound 0.00316 µM, first compound 0.01 µM) 92.6% | viability, T/C (second compound 0.00316 µM, first compound 0.0316 µM) 69.5% | viability, T/C (second compound 0.00316 µM, first compound 0.1 µM) 16.7% | viability, T/C (second compound 0.01 µM, first compound 0.000316 µM) 95.1% | viability, T/C (second compound 0.01 µM, first compound 0.001 µM) 96.8% | viability, T/C (second compound 0.01 µM, first compound 0.00316 µM) 88% | viability, T/C (second compound 0.01 µM, first compound 0.01 µM) 99% | viability, T/C (second compound 0.01 µM, first compound 0.0316 µM) 59.2% | viability, T/C (second compound 0.01 µM, first compound 0.1 µM) 21.1% | viability, T/C (second compound 0.0316 µM, first compound 0.000316 µM) 100% | viability, T/C (second compound 0.0316 µM, first compound 0.001 µM) 94.8% | viability, T/C (second compound 0.0316 µM, first compound 0.00316 µM) 77.4% | viability, T/C (second compound 0.0316 µM, first compound 0.01 µM) 83% | viability, T/C [1] 58.5% | viability, T/C [2] 15% | viability, T/C (second compound 0.1 µM, first compound 0.000316 µM) 103% | viability, T/C (second compound 0.1 µM, first compound 0.001 µM) 82.4% | viability, T/C (second compound 0.1 µM, first compound 0.00316 µM) 87.8% | viability, T/C (second compound 0.1 µM, first compound 0.01 µM) 82.3% | viability, T/C [7] 54.2% | viability, T/C [8] 11.8% | viability, T/C (second compound 0.316 µM, first compound 0.000316 µM) 87.2% | viability, T/C (second compound 0.316 µM, first compound 0.001 µM) 82.8% | viability, T/C (second compound 0.316 µM, first compound 0.00316 µM) 87.6% | viability, T/C (second compound 0.316 µM, first compound 0.01 µM) 84.9% | viability, T/C [13] 49.6% | viability, T/C [14] 12.7% | viability, T/C (second compound 1 µM, first compound 0.000316 µM) 105% | viability, T/C (second compound 1 µM, first compound 0.001 µM) 80.8% | viability, T/C (second compound 1 µM, first compound 0.00316 µM) 75.2% | viability, T/C (second compound 1 µM, first compound 0.01 µM) 70.8% | viability, T/C [19] 46.6% | viability, T/C [20] 12.3%
38.5 nM: IC50 (second compound 0.0316 µM)
36.7 nM: IC50 (second compound 0.1 µM)
48.5 nM: IC50 (second compound 0.00316 µM)
31.2 nM: IC50 (second compound 0.316 µM)
23 nM: IC50 (second compound 1 µM)
41.8 nM: IC50 (second compound 0.01 µM)

C#Cc1c(F)ccc2cc(O)cc(-c3ncc4c(N5CC6CCC(C5)N6)nc(OCC56CCCN5CC(F)C6)nc4c3F)c12 (stereo not drawn) + CC(Nc1ncnc2nc[nH]c12)c1cc2cccc(Cl)c2c(=O)n1-c1ccccc1
inactive: viability, T/C [1] 104% | viability, T/C [2] 94.7% | viability, T/C [3] 92.3% | viability, T/C [4] 92.3% | viability, T/C [5] 90.5% | viability, T/C [6] 62.8% | viability, T/C [7] 96.5% | viability, T/C [8] 91.2% | viability, T/C [9] 88.6% | viability, T/C [10] 90.4% | viability, T/C [11] 81.2% | viability, T/C [12] 57.1% | viability, T/C [13] 78.7% | viability, T/C [14] 67.7% | viability, T/C [15] 70.8% | viability, T/C [16] 83.6% | viability, T/C [17] 75.2% | viability, T/C [18] 54.5% | viability, T/C [19] 68% | viability, T/C [20] 72.8% | viability, T/C [21] 63.7% | viability, T/C [22] 70.5% | viability, T/C [23] 62% | viability, T/C [24] 52.1% | viability, T/C [25] 63.4% | viability, T/C [26] 57.5% | viability, T/C [27] 55.3% | viability, T/C [28] 60% | viability, T/C [29] 54.3% | viability, T/C [30] 43% | viability, T/C [31] 39.2% | viability, T/C [32] 39.8% | viability, T/C [33] 35.5% | viability, T/C [34] 40.4% | viability, T/C [35] 38.6% | viability, T/C [36] 28.2%
4950 nM: IC50 (second compound 3.16 µM)
> 10000 nM: IC50 (second compound 0.0316 µM) | IC50 (second compound 0.1 µM) | IC50 (second compound 0.316 µM) | IC50 (second compound 1 µM)
< 31.6 nM: IC50 (second compound 10 µM)

C=CC(=O)N1CCN(c2nc(=O)n(-c3c(C)ccnc3C(C)C)c3nc(-c4c(O)cccc4F)c(F)cc23)C(C)C1 (stereo not drawn) + Cc1nc(NC(=O)N2CCCC2C(N)=O)sc1-c1ccnc(C(C)(C)C(F)(F)F)c1
1260 nM: IC50 (second compound 3.16 µM)
6130 nM: IC50 (second compound 1 µM)
inactive: viability, T/C [1] 94.9% | viability, T/C [2] 92.7% | viability, T/C [3] 82.9% | viability, T/C [4] 131% | viability, T/C [5] 113% | viability, T/C [6] 67.8% | viability, T/C [7] 93.2% | viability, T/C [8] 100% | viability, T/C [9] 97.1% | viability, T/C [10] 122% | viability, T/C [11] 95.9% | viability, T/C [12] 63.6% | viability, T/C [13] 101% | viability, T/C [14] 100% | viability, T/C [15] 88.1% | viability, T/C [16] 91.6% | viability, T/C [17] 86.2% | viability, T/C [18] 57.5% | viability, T/C [19] 77.4% | viability, T/C [20] 80.9% | viability, T/C [21] 78.1% | viability, T/C [22] 88.3% | viability, T/C [23] 56.9% | viability, T/C [24] 44.9% | viability, T/C [25] 82.7% | viability, T/C [26] 63.7% | viability, T/C [27] 55.8% | viability, T/C [28] 60.8% | viability, T/C [29] 40.9% | viability, T/C [30] 37.2% | viability, T/C [31] 43.8% | viability, T/C [32] 31.2% | viability, T/C [33] 34.3% | viability, T/C [34] 25.6% | viability, T/C [35] 21.9% | viability, T/C [36] 15.8%
< 31.6 nM: IC50 (second compound 10 µM)
> 10000 nM: IC50 (second compound 0.0316 µM) | IC50 (second compound 0.1 µM) | IC50 (second compound 0.316 µM)
